{"source": "patent US7186695B2", "about": "(priority 2001, dated 2007)", "key": {"[1]": {"system": "Human T cells (A3.01)", "assay": "Membrane permeability, tritiated GSAO in cytosol", "assay_type": "in vitro ADME", "conditions": "50 μM GSAO", "description": "Human T cells (A3.01) or adherent BAE cells were incubated with complete medium containing 50 μM GSAO and ˜100,000 counts per minute of tritiated GSAO for 1 or 72 hours. Tritiated GSAO was prepared exactly as described for GSAO except that glycine-2-^3H-glutathione (NEN, Boston, Mass.) was used in place of cold glutathione. The cells were washed and lysed by two cycles of freezing and thawing. The cytosolic constituents were collected by differential centrifugation (Ausbel et al., 2000) and the tritiated GSAO was measured. Only 0.5% of the total tritiated GSAO was found in the T cell cytosol and 0.04% in the BAE cytosol after 1 hour. Moreover, only 4.5% of the GSAO penetrated the T cell membrane after 72 hours of culture."}, "[2]": {"assay": "Titration of cysteine with GSAO, DTNB assay", "assay_type": "binding", "conditions": "cysteine 28 μM, GSAO 0–50 μM, 10 minutes", "description": "FIG. 11. Titration of DMP or cysteine with GSAO. DMP (15 μM corresponding to 30 μM thiols) is or cysteine (28 μM) was incubated with GSAO (0–50 μM) for 10 minutes. DTNB (950 μM) was then added and the reactions incubated for a further 10 minutes. The concentration of thiol in the reactions was determined from the absorbance of the TNB dianion at 412 nm.\nA stock solution of DMP (5 μL, 50 μmol) was dissolved in DMSO (995 μL), giving a concentration of 50 mM DMP. A second dilution of the 50 mM DMP stock solution (10 μL) in pH 7.0 buffer (0.1 M HEPES, 0.3 M NaCl, 1 mM EDTA) (990 μL) gave a working solution of 500 ? M DMP. The activity of the arsenical could then be determined by the titration of varying amounts of arsenical against the DMP working solution (10 μL) in a 96-well microbitre plate, with the total volume made up to 195 μL by addition of buffer. After a 10 minute incubation at room temperature, during which time the solutions were agitated on a plate shaker, 5 μL of a 37.9 mM stock solution of DTNB (15 mg) in DMSO (1 mL) was added, and the plate incubated with shaking for another 10 minutes. The absorbance at 412 nm due to the formation of the TNB dianion was measured using a Molecular Devices Thermomax Plus (Palo Alto, Calif.) microplate reader. The extinction coefficient for the TNB dianion at pH 7.0 is 14,150 M^−1cm^−1 at 412 nm (Riddles et al., 1983)."}, "[3]": {"assay": "Interaction of GSAO with synthetic, peptide and protein dithiols (summary)", "assay_type": "binding", "conditions": "units printed within the range; read-out: dissociation constants, range over all dithiols", "description": "(§1) FIG. 12. Interaction of GSAO with synthetic. Deptide and protein dithiols. DMP (A) (15 μM), 6,8-thioctic acid (B) ([…]), dithiothreitol (C) (8.5 μM), TrpCysGlyProCysLys (D) (4.6 μM), TrpCysGlyHisCysLys (E) (5.5 μM) or thioredoxin (F) (4.1 μM corresponding to 20.6 μM thiols) was incubated with GSAO (0–56 μM) for 10 minutes. DTNB (950 μM) was then added and the reactions incubated for a further 10 minutes. The concentration of thiol in the reactions was determined from the absorbance of the TNB dianion at 412 nm. The solid lines represent the best non-linear least squares fit of the data to Equation 1 (A to E) or Equation 2 (F) and have been drawn using the parameter estimates in Table 1. The dotted line in part A represents a simulated titration assuming an infinite affinity of GSAO for the dithiol. GSAO bound to both synthetic, peptide and protein dithiols with dissociation constants in the range 130 nM to 1.4 μM.\nBinding of GSAO to dithiols was measured from loss of thiols using the DTNB assay described above. The dissociation constant, Kd, for GSAO binding to dithiols was determined by incubating increasing concentrations of GSAO, I, with a fixed dithiol concentration, [S]T, and measuring the remaining dithiol using DTNB. Note that the concentration of dithiol equals half the TNB concentration. […]"}, "[4]": {"biological_target": "T1, Thioredoxin (Homo sapiens, UniProt P10599)", "T1 construct": "purchased American Diagnostica, Greenwich, Conn; host or cells: E. coli", "T1 sequence (P10599 1-105)": "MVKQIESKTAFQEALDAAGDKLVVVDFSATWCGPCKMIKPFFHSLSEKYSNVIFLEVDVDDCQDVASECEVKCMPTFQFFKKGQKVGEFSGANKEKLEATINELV", "assay": "Binding of GSAO to thioredoxin active site dithiol, DTNB assay", "description": "as §1, with “GSAO bound to both synthetic, peptide and protein dithiols with dissociation constants in the range 130 nM to 1.4 μM.” left out\nA stock solution of DMP (5 μL, 50 μmol) was dissolved in DMSO (995 μL), giving a concentration of 50 mM DMP. […] The activity of the arsenical could then be determined by the titration of varying amounts of arsenical against the DMP working solution (10 μL) in a 96-well microbitre plate, with the total volume made up to 195 μL by addition of buffer. […] The absorbance at 412 nm due to the formation of the TNB dianion was measured using a Molecular Devices Thermomax Plus (Palo Alto, Calif.) microplate reader. […]"}}, "data": [{"smiles": "NC(CCC(=O)NC(CSCC(=O)Nc1ccc([As]=O)cc1)C(=O)NCC(=O)O)C(=O)O", "note": "(stereo not drawn) [GSAO, 4-(N-(S-glutathionylacetyl)amino)-phenylarsenoxide]", "values": [{"measurement": "total tritiated GSAO found in the cytosol", "setting": "[1]; 1 hour", "value": 0.5, "unit": "%"}, {"measurement": "GSAO that penetrated the T cell membrane", "setting": "[1]; 72 hours of culture", "value": 4.5, "unit": "%"}, {"measurement": "interaction of GSAO with cysteine in DTNB titration", "setting": "[2]", "value": "any interaction of GSAO with cysteine was displaced by DTNB"}, {"measurement": "Kd", "setting": "[3]", "value": "130 to 1400", "unit": "nM"}, {"measurement": "Kd", "setting": "[4]", "value": "370 ± 180", "unit": "nM"}, {"measurement": "higher affinity for thioredoxin than for the thioredoxin active site hexapeptide", "setting": "[4]; thioredoxin vs TrpCysGlyProCysLys", "value": "~4", "unit": "fold"}]}]}
